Test results: patent US20230067378A1, “COMPOSITIONS AND METHODS FOR THE TREATMENT OF ESTROGEN-DEPENDENT DISORDERS” (ObsEva S.A., priority 2018, published 2023)

Test: adverse events, same clinical trial
Type: in vivo, human
Procedure: The experiments described in this example were conducted as part of a single-center, open-label, randomized, parallel-group clinical trial in 32 pre-menopausal women. Following screening assessments, and during the second half of the menstrual cycle, women received norethindrone (5 mg, three-times daily for 10 days) to synchronize menstrual cycles. After menstrual cycle synchronization, subjects were randomized with a 1:1 ratio to one of two treatment arms: (i) a cohort receiving once-daily administration of compound (VI) (200 mg per day, administered in the form of a choline salt) with concurrent onset of add-back therapy administration for 10 weeks (“Concurrent-ABT”), or (ii) a cohort receiving pre-treatment with compound (VI) (200 mg per day, administered in the form of a choline salt) for 4 weeks followed by combined daily administration of compound (VI) and add-back therapy (“Delayed-ABT”). The add-back therapy used in these experiments contained 1.0 mg of E2 and 0.5 mg of norethindrone acetate, and was administered to subjects once daily.
The main treatment outcomes and endpoints measured during these experiments included (i) a qualitative assessment of uterine blood loss, which was recorded on a daily basis throughout the study by characterizing each subject's bleeding pattern using one of the following four categories: “no bleeding,” “spotting” (light staining, dark blood, no sanitary protection needed or only panty liner), “bleeding” (1-4 completely soiled maxi sanitary towels or 1-8 soiled tampons or equivalent combination of the two), or “heavy bleeding” (>4 completely soiled maxi sanitary towels or >8 soiled tampons or equivalent combination of the two); (ii) a bi-weekly assessment of each subject's circulating E2 concentration; (iii) a bi-weekly assessment of each subject's circulating progesterone concentration (measured using a validated commercial chemiluminescence immunoassay method (Elecsys Progesterone III, Roche, Burgess Hill, UK)); (iv) the pharmacokinetic profile of compound (VI) and the add-back therapy; and (v) adverse events.

[1] = Days 1-14, treatment A (Concurrent-ABT), N=16
[2] = Days 1-14, treatment B (Delayed-ABT), N=16
[3] = Days 15-28, Overall (A+B), N=32
[4] = Days 15-28, treatment A (Concurrent-ABT), N=16
[5] = Days 15-28, treatment B (Delayed-ABT), N=16
[6] = Days 29-42, Overall (A+B), N=29
[7] = Days 29-42, treatment A (Concurrent-ABT), N=14

With `COc1cc(F)c(-n2c(=O)[nH]c3csc(C(=O)O)c3c2=O)cc1OCc1c(OC)ccc(F)c1F` [Compound (VI), 3-[2-fluoro-5-(2,3-difluoro-6-methoxybenzyloxy)4-methoxyphenyl]-2,4-dioxo-1,2,3,4-tetrahydrothieno [3,4d]pyrimidine-5-carboxylic acid] the “hot flushes, cohort of occurrence” value (Concurrent-ABT versus Delayed-ABT) was “exclusively occurred in the “Delayed-ABT” group”, the “Hot Flush, subjects (%), Plasma Estradiol Level 20-50 pg/mL” value (Days 1-14, Overall (A+B), N=32) was “(0.0%)” and the “Hot Flush, subjects (%), Plasma Estradiol Level <20 pg/mL” value (Days 1-14, Overall (A+B), N=32) was “(6.3%)”. For the same molecule, the “Hot Flush, subjects (%), Plasma Estradiol Level >50 pg/mL” value (Days 1-14, Overall (A+B), N=32) was “(0.0%)”, the “Hot Flush, subjects (n), Plasma Estradiol Level 20-50 pg/mL” value (Days 1-14, Overall (A+B), N=32) was 0 and the “Hot Flush, subjects (n), Plasma Estradiol Level <20 pg/mL” value (Days 1-14, Overall (A+B), N=32) was 2. For the same molecule, the “Hot Flush, subjects (n), Plasma Estradiol Level >50 pg/mL” value (Days 1-14, Overall (A+B), N=32) was 0, the “Hot Flush, subjects (%), Plasma Estradiol Level 20-50 pg/mL” value [1] was “(0.0%)” and the “Hot Flush, subjects (%), Plasma Estradiol Level <20 pg/mL” value [1] was “(0.0%)”. The “Hot Flush, subjects (%), Plasma Estradiol Level >50 pg/mL” value [1] was “(0.0%)”, the “Hot Flush, subjects (n), Plasma Estradiol Level 20-50 pg/mL” value [1] was 0 and the “Hot Flush, subjects (n), Plasma Estradiol Level <20 pg/mL” value [1] was 0. The “Hot Flush, subjects (n), Plasma Estradiol Level >50 pg/mL” value [1] was 0, the “Hot Flush, subjects (%), Plasma Estradiol Level 20-50 pg/mL” value [2] was “(0.0%)” and the “Hot Flush, subjects (%), Plasma Estradiol Level <20 pg/mL” value [2] was “(12.5%)”. The “Hot Flush, subjects (%), Plasma Estradiol Level >50 pg/mL” value [2] was “(0.0%)”, the “Hot Flush, subjects (n), Plasma Estradiol Level 20-50 pg/mL” value [2] was 0 and the “Hot Flush, subjects (n), Plasma Estradiol Level <20 pg/mL” value [2] was 2. For the same molecule, the “Hot Flush, subjects (n), Plasma Estradiol Level >50 pg/mL” value [2] was 0, the “Hot Flush, subjects (%), Plasma Estradiol Level 20-50 pg/mL” value [3] was “(0.0%)” and the “Hot Flush, subjects (%), Plasma Estradiol Level <20 pg/mL” value [3] was “(12.5%)”. For the same molecule, the “Hot Flush, subjects (%), Plasma Estradiol Level >50 pg/mL” value [3] was “(0.0%)”, the “Hot Flush, subjects (n), Plasma Estradiol Level 20-50 pg/mL” value [3] was 0 and the “Hot Flush, subjects (n), Plasma Estradiol Level <20 pg/mL” value [3] was 4. For the same molecule, the “Hot Flush, subjects (n), Plasma Estradiol Level >50 pg/mL” value [3] was 0, the “Hot Flush, subjects (%), Plasma Estradiol Level 20-50 pg/mL” value [4] was “(0.0%)” and the “Hot Flush, subjects (%), Plasma Estradiol Level <20 pg/mL” value [4] was “(0.0%)”. For the same molecule, the “Hot Flush, subjects (%), Plasma Estradiol Level >50 pg/mL” value [4] was “(0.0%)”, the “Hot Flush, subjects (n), Plasma Estradiol Level 20-50 pg/mL” value [4] was 0 and the “Hot Flush, subjects (n), Plasma Estradiol Level <20 pg/mL” value [4] was 0. The “Hot Flush, subjects (n), Plasma Estradiol Level >50 pg/mL” value [4] was 0, the “Hot Flush, subjects (%), Plasma Estradiol Level 20-50 pg/mL” value [5] was “(0.0%)” and the “Hot Flush, subjects (%), Plasma Estradiol Level <20 pg/mL” value [5] was “(25.0%)”. For the same molecule, the “Hot Flush, subjects (%), Plasma Estradiol Level >50 pg/mL” value [5] was “(0.0%)”, the “Hot Flush, subjects (n), Plasma Estradiol Level 20-50 pg/mL” value [5] was 0 and the “Hot Flush, subjects (n), Plasma Estradiol Level <20 pg/mL” value [5] was 4. The “Hot Flush, subjects (n), Plasma Estradiol Level >50 pg/mL” value [5] was 0, the “Hot Flush, subjects (%), Plasma Estradiol Level 20-50 pg/mL” value [6] was “(10.3%)” and the “Hot Flush, subjects (%), Plasma Estradiol Level <20 pg/mL” value [6] was “(6.9%)”. For the same molecule, the “Hot Flush, subjects (%), Plasma Estradiol Level >50 pg/mL” value [6] was “(0.0%)”, the “Hot Flush, subjects (n), Plasma Estradiol Level 20-50 pg/mL” value [6] was 3 and the “Hot Flush, subjects (n), Plasma Estradiol Level <20 pg/mL” value [6] was 2. For the same molecule, the “Hot Flush, subjects (n), Plasma Estradiol Level >50 pg/mL” value [6] was 0, the “Hot Flush, subjects (%), Plasma Estradiol Level 20-50 pg/mL” value [7] was “(0.0%)” and the “Hot Flush, subjects (%), Plasma Estradiol Level <20 pg/mL” value [7] was “(0.0%)”. The “Hot Flush, subjects (%), Plasma Estradiol Level >50 pg/mL” value [7] was “(0.0%)”, the “Hot Flush, subjects (n), Plasma Estradiol Level 20-50 pg/mL” value [7] was 0 and the “Hot Flush, subjects (n), Plasma Estradiol Level <20 pg/mL” value [7] was 0. The “Hot Flush, subjects (n), Plasma Estradiol Level >50 pg/mL” value [7] was 0 and the “Hot Flush, subjects (%), Plasma Estradiol Level 20-50 pg/mL” value (Days 29-42, treatment B (Delayed-ABT), N=15) was “(20.0%)”.
